Assay results published in ChEMBL document CHEMBL1201862, “PubChem BioAssay data set” (2004).
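Test compounds were applied to cells in 96-well plates for 48 hours at 5 doses. Here, GI50 denotes the concentration required for 50% inhibition of growth.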 Active and inactive are the calls of the source. Rule as the data show it: active = GI50 up to about 1.1 µM and inactive = higher.

How the values were obtained:
Assay in all cases: NCI anticancer screen, dose series, 48 h
[1] = test system: NCI-H522
[2] = test system: UO-31
[3] = test system: 786-0
[4] = test system: OVCAR-5
[5] = test system: UACC-257
[6] = test system: MCF7
[7] = test system: RPMI-8226
[8] = test system: COLO 205
[9] = test system: Hs-578T
[10] = test system: SK-MEL-28
[11] = test system: HCT-116
[12] = test system: LOX IMVI
[13] = test system: SF-295
[14] = test system: SF-539
[15] = test system: PC-3
[16] = test system: OVCAR-8
[17] = test system: HT-29
[18] = test system: Malme-3M

Row | SMILES | GI50 [1] | GI50 [2] | GI50 [3] | GI50 [4] | GI50 [5] | GI50 [6] | GI50 [7] | GI50 [8] | GI50 [9] | GI50 [10] | GI50 [11] | GI50 [12] | GI50 [13] | GI50 [14] | GI50 [15] | GI50 [16] | GI50 [17] | GI50 [18]
1 | O=S1(=O)CCN(Cc2ccccn2)CC1 | > 100 µM (inactive) | > 100 µM (inactive) | > 100 µM (inactive) | > 100 µM (inactive) | > 100 µM (inactive) | > 100 µM (inactive) | > 100 µM (inactive) | > 100 µM (inactive) | > 100 µM (inactive) | > 100 µM (inactive) | > 100 µM (inactive) | > 100 µM (inactive) | > 100 µM (inactive) | > 100 µM (inactive) | > 100 µM (inactive) | > 100 µM (inactive) | > 100 µM (inactive) | > 100 µM (inactive)
2 | COc1ccc(C(=O)CC(c2ccc(OC)c(OC)c2)c2c(O)oc3ccccc3c2=O)cc1OC (stereo not given) | > 100 µM (inactive) | > 100 µM (inactive) | > 100 µM (inactive) | > 100 µM (inactive) | > 100 µM (inactive) | > 100 µM (inactive) | 95.1 µM (inactive) | > 100 µM (inactive) | > 100 µM (inactive) | > 100 µM (inactive) | > 100 µM (inactive) | > 100 µM (inactive) | > 100 µM (inactive) | > 100 µM (inactive) | > 100 µM (inactive) | > 100 µM (inactive) | > 100 µM (inactive) | > 100 µM (inactive)
3 | Cc1nn(C(=O)c2ccccc2O)c2c1C(c1ccc([N+](=O)[O-])cc1)SC(=N)N2 (stereo not given) | 5.6 µM (inactive) | 4.49 µM (inactive) | > 5.24 µM (inactive) | > 7.76 µM (inactive) | 3.21 µM (inactive) | 3.72 µM (inactive) | > 7.03 µM (inactive) | > 8.61 µM (inactive) | 0.676 µM (active) | > 10 µM (inactive) | 2.48 µM (inactive) | 3.4 µM (inactive) | 3.13 µM (inactive) | 0.984 µM (active) | > 9.53 µM (inactive) | 4 µM (inactive) | > 6.67 µM (inactive) | 4.42 µM (inactive)
4 | COC(=O)CC1C=CC(C)(OC)OO1 (stereo not given) | 16.9 µM (inactive) | > 100 µM (inactive) | > 100 µM (inactive) | > 100 µM (inactive) | > 100 µM (inactive) | 53.1 µM (inactive) | 56.2 µM (inactive) | 55.7 µM (inactive) | > 100 µM (inactive) | > 100 µM (inactive) | > 100 µM (inactive) | 48.3 µM (inactive) | > 100 µM (inactive) | > 100 µM (inactive) | > 100 µM (inactive) | > 100 µM (inactive) | > 100 µM (inactive) | 78.7 µM (inactive)
5 | CN(C)CCCNc1ccc2nnn3c4ccc(OC(=O)c5ccccc5)cc4c(=O)c1c23 | 2.84 µM (inactive) | 4.14 µM (inactive) | 3.08 µM (inactive) | 14.4 µM (inactive) | 16 µM (inactive) | 6.07 µM (inactive) | 3.29 µM (inactive) | 14 µM (inactive) | 18.3 µM (inactive) | 15.8 µM (inactive) | 3.15 µM (inactive) | 2.17 µM (inactive) | 10.9 µM (inactive) | 6.76 µM (inactive) | 8.34 µM (inactive) | 4.55 µM (inactive) | 3.71 µM (inactive) | 11.5 µM (inactive)
6 | O=c1cc(NNc2cccc3ccccc23)[nH]c(=O)[nH]1 | 14.8 µM (inactive) | 16.3 µM (inactive) | 6.12 µM (inactive) | 17.2 µM (inactive) | 15.7 µM (inactive) | 1.69 µM (inactive) | 5.53 µM (inactive) | 17.3 µM (inactive) | 26.2 µM (inactive) | 18.6 µM (inactive) | 17.4 µM (inactive) | 13.6 µM (inactive) | 17.5 µM (inactive) | 15.6 µM (inactive) | 13.8 µM (inactive) | 18 µM (inactive) | 17.6 µM (inactive) | 17.8 µM (inactive)
7 | C1=C\CCCCN2C[C@H]3CCCC/C=C\CCCCN4CC[C@@H]([C@H](CCCCCC/1)C4)[C@H](C3)C2 | 1.69 µM (inactive) | 1.66 µM (inactive) | 1.75 µM (inactive) | 7.5 µM (inactive) | 1.76 µM (inactive) | 1.93 µM (inactive) | 1.57 µM (inactive) | 2.07 µM (inactive) | 2.05 µM (inactive) | 1.93 µM (inactive) | 2.11 µM (inactive) | 1.74 µM (inactive) | 1.71 µM (inactive) | 1.87 µM (inactive) | 3.12 µM (inactive) | 2.84 µM (inactive) | 2.07 µM (inactive) | 1.85 µM (inactive)
8 | FC1(F)ON2CCc3ccccc3C2[C@H]1c1ccccc1 (stereo not given in full) | > 10 µM (inactive) | > 100 µM (inactive) | 26.4 µM (inactive) | > 10 µM (inactive) | > 10 µM (inactive) | > 10 µM (inactive) | > 10 µM (inactive) | > 10 µM (inactive) | 4.25 µM (inactive) | > 10 µM (inactive) | 65.6 µM (inactive) | 91 µM (inactive) | > 10 µM (inactive) | 91.8 µM (inactive) | > 10 µM (inactive) | 39.9 µM (inactive) | > 10 µM (inactive) | 2.22 µM (inactive)
9 | CCN(CC)CCn1c(=O)c2ccccc2n2c3c(=O)n(C)c(=O)n(C)c3nc12 | 2.43 µM (inactive) | 2.11 µM (inactive) | 1.32 µM (inactive) | 2.53 µM (inactive) | 3.46 µM (inactive) | 0.337 µM (active) | 1.6 µM (inactive) | 1.55 µM (inactive) | 2.01 µM (inactive) | 5.15 µM (inactive) | 1.55 µM (inactive) | 13.2 µM (inactive) | 1.24 µM (inactive) | 0.968 µM (active) | 2.38 µM (inactive) | 1.84 µM (inactive) | 2.2 µM (inactive) | 2.07 µM (inactive)
10 | CC(C)(C)OC(=O)NC(Cc1ccc(OCc2ccccc2)cn1)C(=O)N1CCCCC1 (stereo not given) | 32.1 µM (inactive) | 27.9 µM (inactive) | 56 µM (inactive) | 65.2 µM (inactive) | 19.6 µM (inactive) | 31.6 µM (inactive) | 20.7 µM (inactive) | 18.6 µM (inactive) | 67.3 µM (inactive) | 54.3 µM (inactive) | 40.8 µM (inactive) | 25.4 µM (inactive) | 30.5 µM (inactive) | 41.3 µM (inactive) | 22.2 µM (inactive) | 35.6 µM (inactive) | 32 µM (inactive) | 40.5 µM (inactive)
11 | COC(=O)c1ccccc1C1CN=NC12Cc1ccc3ccccc3c1C2=O (stereo not given) | 80.4 µM (inactive) | > 100 µM (inactive) | > 100 µM (inactive) | > 100 µM (inactive) | > 100 µM (inactive) | > 100 µM (inactive) | 13.4 µM (inactive) | > 100 µM (inactive) | 94.4 µM (inactive) | > 100 µM (inactive) | – | > 100 µM (inactive) | 38.5 µM (inactive) | 73.8 µM (inactive) | > 100 µM (inactive) | > 100 µM (inactive) | – | 30.8 µM (inactive)
12 | O=C1c2ccccc2C(=O)N1c1nc(-c2ccc(Cl)cc2)cc(N2N=C(c3ccc(Br)cc3)CC2c2ccccc2)n1 (stereo not given) | 2.09 µM (inactive) | 4.81 µM (inactive) | 4.93 µM (inactive) | 1.04 µM (active) | 6.7 µM (inactive) | 1.3 µM (inactive) | 2.7 µM (inactive) | 1.9 µM (inactive) | 3.74 µM (inactive) | 7.73 µM (inactive) | 2.01 µM (inactive) | 1.29 µM (inactive) | 0.91 µM (active) | 2.16 µM (inactive) | 3.93 µM (inactive) | 3.35 µM (inactive) | 2.94 µM (inactive) | > 44.7 µM (inactive)
13 | O=C(NCCCCNCCCNC(=O)c1cc(-c2ccccc2)nc2ccccc12)c1cc(-c2ccccc2)nc2ccccc12 | 1.7 µM (inactive) | 1.7 µM (inactive) | 1.67 µM (inactive) | – | 1.73 µM (inactive) | 1.64 µM (inactive) | 2.5 µM (inactive) | 1.49 µM (inactive) | 1.96 µM (inactive) | 1.83 µM (inactive) | 1.8 µM (inactive) | 1.54 µM (inactive) | 1.77 µM (inactive) | 2.13 µM (inactive) | 1.63 µM (inactive) | 1.69 µM (inactive) | 1.6 µM (inactive) | 1.78 µM (inactive)
14 | COC(=O)C(Cc1ccccc1I)C1=CCC2(CC1)OCCO2 (stereo not given) | 21.4 µM (inactive) | 23.3 µM (inactive) | 34.3 µM (inactive) | 11.3 µM (inactive) | 27.1 µM (inactive) | 27.7 µM (inactive) | 30 µM (inactive) | 28.4 µM (inactive) | 26.6 µM (inactive) | 48.9 µM (inactive) | – | 23.3 µM (inactive) | 29.2 µM (inactive) | 63.8 µM (inactive) | 26.9 µM (inactive) | 35.2 µM (inactive) | 31.8 µM (inactive) | 22.9 µM (inactive)
15 | Cc1c(Cl)ccc2c(=O)c3cccc(CC(=O)O)c3oc12 | > 100 µM (inactive) | > 100 µM (inactive) | > 100 µM (inactive) | – | > 100 µM (inactive) | 35.6 µM (inactive) | > 100 µM (inactive) | > 100 µM (inactive) | > 100 µM (inactive) | > 100 µM (inactive) | > 100 µM (inactive) | > 100 µM (inactive) | > 100 µM (inactive) | > 100 µM (inactive) | > 100 µM (inactive) | > 100 µM (inactive) | > 100 µM (inactive) | > 100 µM (inactive)
